Laboratory results reported in patent US9517221B2, “(2R)-2-propyloctanoic acid for functional brain disease” (ONO PHARMACEUTICAL CO., LTD., priority 2006, dated 2016).

System: Wistar male rats
Assay: Rat learned helplessness test (Test Example 3)
Assay type: in vivo
Settings: oral once a day for 6 days and 1 hour before shock training on 7th day; present tense
Method: A learned helplessness test is carried out using a two way type shuttle box which is divided into two by a gate which can be opened and closed so that shift to right and left is possible. Wistar male rats are used in the test, and a shock training is carried out on the 1st day of the test. The shock training is carried out by putting the rats in the apparatus under an inescapable condition by closing the gate, and applying an electric shock (10 seconds×90 times, intervals of 2 seconds) through a floor grid. In this connection, the rats of the control group are not treated with the electric shock and allowed to stay free in the apparatus for the same period of time. An escape test is carried out after 24 hours of the shock training. The escape test is carried out by putting the rats in the apparatus under an escapable condition by opening the gate, and after 5 minutes of adaptation, by applying a light stimulation and a sound stimulation (conditional stimulation) simultaneously for 5 seconds and subsequently applying an electric shock (no conditional stimulation) for 10 seconds. By regarding a case of no escaping and continuously receiving the electric shock as escape failure, this trial is repeated 40 times (intervals of 5 seconds), and behavior of the rats is analyzed by a behavior analysis software (MED-PC Version 1.16). […]

CCCCCC[C@@H](CCC)C(=O)O [(2R)-2-propyloctanoic acid]
Number of escape failures versus vehicle treating group: inhibits increase of the number of escape failures
